Measurements as given in PubChem BioAssay (NCI).
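Protocol summary: plate cells (96-well), add compound at 5 concentrations, incubate 48 h, interpolate endpoints linearly. GI50 is the concentration that inhibits growth by half. TGI is the concentration that stops growth completely.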

Legend:
Test in all cases: NCI-60 cell line screen, 48 h
SW-620 colon = test system: SW-620 colon
SF-539 CNS = test system: SF-539 CNS
MALME-3M melanoma = test system: MALME-3M melanoma
ACHN renal = test system: ACHN renal
SF-295 CNS = test system: SF-295 CNS
SNB-19 CNS = test system: SNB-19 CNS
BT-549 breast = test system: BT-549 breast
OVCAR-3 ovarian = test system: OVCAR-3 ovarian
K-562 leukemia = test system: K-562 leukemia
HCT-116 colon = test system: HCT-116 colon
CAKI-1 renal = test system: CAKI-1 renal
MDA-MB-231 breast = test system: MDA-MB-231 breast
HL-60(TB) leukemia = test system: HL-60(TB) leukemia
SR leukemia = test system: SR leukemia
UACC-62 melanoma = test system: UACC-62 melanoma
UACC-257 melanoma = test system: UACC-257 melanoma
NCI-H23 lung = test system: NCI-H23 lung
NCI-H522 lung = test system: NCI-H522 lung
HS 578T breast = test system: HS 578T breast
HT29 colon = test system: HT29 colon
SK-MEL-28 melanoma = test system: SK-MEL-28 melanoma
RXF 393 renal = test system: RXF 393 renal
A498 renal = test system: A498 renal
HOP-92 NSCLC = test system: HOP-92 NSCLC
SK-MEL-2 melanoma = test system: SK-MEL-2 melanoma
HCT-15 colon = test system: HCT-15 colon
PC-3 prostate = test system: PC-3 prostate
T-47D breast = test system: T-47D breast
MDA-MB-435 = test system: MDA-MB-435
UO-31 renal = test system: UO-31 renal
CCRF-CEM leukemia = test system: CCRF-CEM leukemia
IGROV1 ovarian = test system: IGROV1 ovarian
DU-145 prostate = test system: DU-145 prostate
RPMI-8226 leukemia = test system: RPMI-8226 leukemia
MCF7 breast = test system: MCF7 breast
M14 melanoma = test system: M14 melanoma
NCI/ADR-RES ovarian = test system: NCI/ADR-RES ovarian
LOX IMVI melanoma = test system: LOX IMVI melanoma
OVCAR-5 ovarian = test system: OVCAR-5 ovarian
KM12 colon = test system: KM12 colon
HCC-2998 colon = test system: HCC-2998 colon
TK-10 renal = test system: TK-10 renal
OVCAR-4 ovarian = test system: OVCAR-4 ovarian
SNB-75 CNS = test system: SNB-75 CNS
786-0 renal = test system: 786-0 renal
SK-MEL-5 melanoma = test system: SK-MEL-5 melanoma
EKVX NSCLC = test system: EKVX NSCLC

COc1ccc(NC(=O)Nc2ccccc2CNc2nc(Nc3ccc(OCCN4CCCC4)cc3)ncc2Cl)cc1
GI50 (SW-620 colon): 1050 nM | TGI (SW-620 colon): 2500 nM | GI50 (SF-539 CNS): 825 nM | TGI (SF-539 CNS): 1540 nM | GI50 (MALME-3M melanoma): 845 nM | TGI (MALME-3M melanoma): 1580 nM | GI50 (ACHN renal): 862 nM | TGI (ACHN renal): 1550 nM | GI50 (SF-295 CNS): 853 nM | TGI (SF-295 CNS): 1600 nM | GI50 (SNB-19 CNS): 2140 nM | TGI (SNB-19 CNS): 9200 nM | GI50 (BT-549 breast): 788 nM | TGI (BT-549 breast): 1540 nM | GI50 (OVCAR-3 ovarian): 923 nM | TGI (OVCAR-3 ovarian): 1730 nM | GI50 (K-562 leukemia): 1630 nM | TGI (K-562 leukemia): > 50000 nM | GI50 (HCT-116 colon): 902 nM | TGI (HCT-116 colon): 1750 nM | GI50 (CAKI-1 renal): 867 nM | TGI (CAKI-1 renal): 1610 nM | GI50 (MDA-MB-231 breast): 953 nM | TGI (MDA-MB-231 breast): 1740 nM | GI50 (HL-60(TB) leukemia): 1150 nM | TGI (HL-60(TB) leukemia): 2590 nM | GI50 (SR leukemia): 1540 nM | TGI (SR leukemia): > 50000 nM | GI50 (UACC-62 melanoma): 869 nM | TGI (UACC-62 melanoma): 1630 nM | GI50 (UACC-257 melanoma): 926 nM | TGI (UACC-257 melanoma): 1730 nM | GI50 (NCI-H23 lung): 2010 nM | TGI (NCI-H23 lung): 8720 nM | GI50 (NCI-H522 lung): 1040 nM | TGI (NCI-H522 lung): 2310 nM | GI50 (HS 578T breast): 1010 nM | TGI (HS 578T breast): 2380 nM | GI50 (HT29 colon): 1100 nM | TGI (HT29 colon): 2600 nM | GI50 (SK-MEL-28 melanoma): 870 nM | TGI (SK-MEL-28 melanoma): 1620 nM | GI50 (RXF 393 renal): 828 nM | TGI (RXF 393 renal): 1640 nM | GI50 (A498 renal): 963 nM | TGI (A498 renal): 3270 nM | GI50 (HOP-92 NSCLC): 877 nM | TGI (HOP-92 NSCLC): 2370 nM | GI50 (SK-MEL-2 melanoma): 1120 nM | TGI (SK-MEL-2 melanoma): 2580 nM | GI50 (HCT-15 colon): 878 nM | TGI (HCT-15 colon): 1760 nM | GI50 (PC-3 prostate): 1200 nM | TGI (PC-3 prostate): 2960 nM | GI50 (T-47D breast): 1020 nM | TGI (T-47D breast): 2540 nM | GI50 (MDA-MB-435): 874 nM | TGI (MDA-MB-435): 1610 nM | GI50 (UO-31 renal): 763 nM | TGI (UO-31 renal): 1440 nM | GI50 (CCRF-CEM leukemia): 1680 nM | TGI (CCRF-CEM leukemia): > 50000 nM | GI50 (IGROV1 ovarian): 894 nM | TGI (IGROV1 ovarian): 1660 nM | GI50 (DU-145 prostate): 1240 nM | TGI (DU-145 prostate): 3420 nM | GI50 (RPMI-8226 leukemia): 1730 nM | TGI (RPMI-8226 leukemia): > 50000 nM | GI50 (MCF7 breast): 926 nM | TGI (MCF7 breast): 1780 nM | GI50 (M14 melanoma): 833 nM | TGI (M14 melanoma): 1640 nM | GI50 (NCI/ADR-RES ovarian): 1100 nM | TGI (NCI/ADR-RES ovarian): 2640 nM | GI50 (LOX IMVI melanoma): 894 nM | TGI (LOX IMVI melanoma): 1640 nM | GI50 (OVCAR-5 ovarian): 1020 nM | TGI (OVCAR-5 ovarian): 2080 nM | GI50 (KM12 colon): 947 nM | TGI (KM12 colon): 1770 nM | GI50 (HCC-2998 colon): 1010 nM | TGI (HCC-2998 colon): 2180 nM | GI50 (TK-10 renal): 990 nM | TGI (TK-10 renal): 1980 nM | GI50 (OVCAR-4 ovarian): 879 nM | TGI (OVCAR-4 ovarian): 1690 nM | GI50 (SNB-75 CNS): 755 nM | TGI (SNB-75 CNS): 1450 nM | GI50 (786-0 renal): 882 nM | TGI (786-0 renal): 1640 nM | GI50 (SK-MEL-5 melanoma): 849 nM | TGI (SK-MEL-5 melanoma): 1550 nM | GI50 (EKVX NSCLC): 2650 nM | TGI (EKVX NSCLC): 9450 nM
